Experiments:
Assay type in all cases: cell-based
[1] = tested on: Human dermal papilla cells; assay: Dermal papilla cell growth promoting activity (WST-1, spheroid culture), Test Example 5; conditions: for activity at 1 µM / activity at 4 µM / activity at 16 µM: Homo sapiens, Human dermal papilla cell, 72 hours, average of 3 wells, read-out: ΔO.D. 450 nm/620 nm (% of control); for growth promoting activity on dermal papilla cells: at 1 μM; for growth of dermal papilla cells: no concentration stated
Protocol: (§1) Human dermal papilla cells, which were purchased from Toyobo, were cultured in MEM (Invitrogen) containing 12% FBS.
The dermal papilla cells in passage 5 were sowed in a 96-well plate for spheroid culture to give a density of 1.5×10^4 cells/well and cultured overnight. Then, the medium was replaced by a medium to which no compound was added or a medium containing the compound and the culture was continued for additional 72 hours. After the completion of the culture, cells were counted by using a Cell Counting Kit (Wako Pure Chemicals). Five hours before the completion of the culture, WST-1 reagent at 1/10 amount per medium was added to each medium and then the optical density (O.D. 450 nm/620 nm) of the medium was measured at the completion of the culture. A positive correlation was observed between the cell number and optical density within the range of 0.25 to 4×10^4 cells/well.
In this table, each numerical value means an average of 6 wells (control group) or 3 wells (test groups). To compare the control group to the test groups, Student's t-test was employed: • *:P<0.05, **:P<0.01, ***:P<0.001.

[2] = tested on: GAPDH mRNA; assay: GAPDH mRNA amount (QuantiGene bDNA method), Test Example 4; conditions: Human dermal papilla cell; human dermal papilla cells, 24 hours, concentration at which the mRNA amount is halved, average of 2 wells
Protocol: as §1
(§2) The dermal papilla cells in passage 5 were sowed in a 96-well plate to give a density of 1×10^4 cells/well and cultured overnight. Then, the medium was replaced by a medium to which no compound was added or a medium containing the compounds and the culture was continued for additional 24 hours. After the completion of the culture, WNT-5A or GAPDH mRNA amount was measured by using QuantiGene High Volume Kit (Bayer Medical) by the branched DNA (bDNA) signal amplification method (Drug Metabolism and Disposition, 28(5), 608-616 (2000)). In accordance with the protocol attached to QuantiGene High Volume Kit, cells were lysed by using Lysis Mixture and the lysis solution was added to capture plate. Next, a set of probes specific to WNT-5A or GPDH was added and allowed to react at 53° C. for 20 hours. After washing the plate by using 0.1×SSC containing 0.03% lauryl sulfate, an amplification probe comprising bDNA was added and allowed to react at 46° C. for 1 hour. After washing the plate, a labeling probe labeled with alkaline phosphatase was added and allowed to react at 46° C. for 1 hour. After washing the plate, a substrate Lumi-Phos Plus was added and allowed to react at 46° C. for 30 minutes. Then, the luminescence was measured by using WALLAC 1420ARVOsx.
As GAPDH-specific probe set, use was made of bDNA probe set for human GAPDH (XenoTech LLC, B0960).
(§3) The amounts of WNT-5A and GAPDH mRNAs are expressed in relative values (%) to the control case of adding of no compound and the concentration of a compound at which the mRNA amount is halved (IC50) is calculated as an index of WNT-5A mRNA decreasing activity of the corresponding compound.

[3] = tested on: WNT-5A mRNA; assay: Activity of decreasing WNT-5A mRNA amount (QuantiGene bDNA method), Test Example 4; conditions: human dermal papilla cells; for IC50: concentration at which the mRNA amount is halved, average of 2 wells
Protocol: as §1, §2
The WNT-5A-specific probe set was designed based on the sequence of the coding region of human WNT-5A mRNA. As capture extenders (CEs), 10 probes (SEQ ID NOs:12 to 21) were used; as label extenders (LEs), 31 probes (SEQ ID NOs:22 to 52) were employed; and as blockers, […] (SEQ ID NOs:53 to 60) were employed.
as §3

[4] = Homo sapiens, Human dermal papilla cell, 24 h

## C[C@@H]1C[C@@H]2O[C@H]2/C=C\C=C\C(=O)Cc2c(Cl)c(O)cc(O)c2C(=O)O1 [Compound 1, Radicicol]
[1]
  activity at 1 µM: 133 ± 11.6%
  activity at 4 µM: 184 ± 12.1%
  activity at 16 µM: 145 ± 13%
  growth promoting activity on dermal papilla cells: significant growth promoting activity
[2]
  IC50: 28.2 µM

## CC(=O)Oc1cc(OC(C)=O)c2c(c1Cl)CC(=O)/C=C/C=C\[C@@H]1O[C@H]1C[C@@H](C)OC2=O [Compound 2]
[1]
  activity at 1 µM: 143 ± 10.1%
  activity at 4 µM: 167 ± 8.5%
  activity at 16 µM: 241 ± 25.3%
  growth promoting activity on dermal papilla cells: significant growth promoting activity
[2]
  IC50: 26.4 µM

## C[C@@H]1C[C@@H]2O[C@H]2CCCCC(=O)Cc2c(Cl)c(O)cc(O)c2C(=O)O1 [Compound 4]
[3]; [4]
  IC50: 3.46 µM
[1]
  activity at 1 µM: 97.4 ± 24.4%
  activity at 4 µM: 148 ± 4.9%
  activity at 16 µM: 180 ± 6.9%
[2]
  IC50: > 30 µM

## C[C@@H]1C[C@@H]2O[C@H]2/C=C\C=C\[C@H](O)Cc2c(Cl)c(O)cc(O)c2C(=O)O1 [Compound 5]
[3]; [4]
  IC50: 3.47 µM
[1]
  activity at 1 µM: 110 ± 45%
  activity at 4 µM: 175 ± 29.2%
  activity at 16 µM: 236 ± 26.4%
[2]
  IC50: > 30 µM

## C[C@@H]1C[C@H](OC=O)[C@@H](Cl)/C=C\C=C\C(=O)Cc2c(Cl)c(O)cc(O)c2C(=O)O1 [Compound 18]
[3]; [4]
  IC50: < 1 µM
[3]; 24 hours
  IC50: 0.63 µM
[1]
  activity at 1 µM: 116 ± 9%
  activity at 4 µM: 147 ± 11.3%
  activity at 16 µM: 211 ± 25.9%
  growth promoting activity on dermal papilla cells: significant growth promoting activity
[2]
  IC50: 6.58 µM

## O=C1c2no[n+]([O-])c2CCC1NO (stereo not shown) [Compound 24]
[3]; Human dermal papilla cell, 24 hours
  IC50: 4.74 µM
[1]
  activity at 1 µM: 108 ± 6.9%
  activity at 4 µM: 104 ± 10.5%
  activity at 16 µM: 120 ± 3.7%
  growth of dermal papilla cells: excellent effect of promoting the growth
[2]
  IC50: 21.1 µM

## C[C@@H]1C[C@@H]2O[C@H]2/C=C\C=C\C(=NO)Cc2c(Cl)c(O)cc(O)c2C(=O)O1 [Compound 35]
[1]
  activity at 1 µM: 161 ± 3.5%
  activity at 4 µM: 182 ± 3.7%
  activity at 16 µM: 159 ± 18.3%
  growth promoting activity on dermal papilla cells: significant growth promoting activity
[2]
  IC50: 4.29 µM

## C[C@@H]1CC2OC2C/C=C\C[C@H](O)Cc2c(Cl)c(O)cc(O)c2C(=O)O1 (stereo partly shown) [Compound 38]
[3]; [4]
  IC50: 6.42 µM
[1]
  activity at 1 µM: 104 ± 2.6%
  activity at 4 µM: 89.6 ± 7.3%
  activity at 16 µM: 125 ± 5.1%
[2]
  IC50: > 120 µM

## C[C@@H]1C[C@@H]2O[C@H]2/C=C\C=C\C(=O)Cc2c(Cl)c(OCC(=O)Sc3ccccc3)cc(OCC(=O)Sc3ccccc3)c2C(=O)O1 [Compound 52]
[3]
  WNT-5A mRNA amount / expression in dermal papilla cells: effectively inhibit
[1]
  activity at 1 µM: 124.5 ± 1%
  activity at 4 µM: 143 ± 9.5%
  activity at 16 µM: 197 ± 5.4%
  growth promoting activity on dermal papilla cells: significant growth promoting activity
  growth of dermal papilla cells: promote the growth
[2]
  IC50: 13.5 µM

## C[C@@H]1C[C@@H]2O[C@H]2[C@H](Sc2ccccc2)/C=C/CC(=O)Cc2c(Cl)c(O)cc(O)c2C(=O)O1 [Compound 53]
[3]
  WNT-5A mRNA amount / expression in dermal papilla cells: effectively inhibit
[1]
  activity at 1 µM: 127 ± 14.3%
  activity at 4 µM: 150 ± 12.8%
  activity at 16 µM: 184 ± 3.6%
  growth promoting activity on dermal papilla cells: significant growth promoting activity
  growth of dermal papilla cells: promote the growth
[2]
  IC50: 45.5 µM

## CC(=O)S[C@@H]1/C=C/CC(=O)Cc2c(Cl)c(O)cc(O)c2C(=O)O[C@H](C)C[C@@H]2O[C@H]21 [Compound 54]
[3]; [4]
  IC50: 2.37 µM
[1]
  activity at 1 µM: 80 ± 2.4%
  activity at 4 µM: 97.1 ± 5.6%
  activity at 16 µM: 135 ± 0.9%
[2]
  IC50: > 30 µM

## CC(=O)S[C@@H]1/C=C\CC(=O)Cc2c(Cl)c(O)cc(O)c2C(=O)O[C@H](C)C[C@@H]2O[C@H]21 [Compound 55]
[3]; [4]
  IC50: 0.74 µM
[1]
  activity at 1 µM: 89 ± 1.8%
  activity at 4 µM: 127 ± 7.2%
  activity at 16 µM: 176 ± 9.8%
[2]
  IC50: > 30 µM

## C[C@@H]1C[C@@H]2O[C@H]2/C=C\C=C\C(=O)Cc2c(Cl)c(OC(=O)c3cccnc3)cc(OC(=O)c3cccnc3)c2C(=O)O1 [Compound 58]
[3]; [4]
  IC50: < 1 µM
[3]
  WNT-5A mRNA amount / expression in dermal papilla cells: effectively inhibit
[3]; 24 hours
  IC50: 0.5 µM
[1]
  activity at 1 µM: 123 ± 1.8%
  activity at 4 µM: 150 ± 9.4%
  activity at 16 µM: 217 ± 14.5%
  growth promoting activity on dermal papilla cells: significant growth promoting activity
  growth of dermal papilla cells: promote the growth
[2]
  IC50: 80 µM

## CC1C/C=C/C(O)C/C=C/C(=O)Cc2c(Cl)c(O)cc(O)c2C(=O)O1 (stereo not shown) [Compound 65]
[3]; [4]
  IC50: 8.28 µM
[1]
  activity at 1 µM: 92.1 ± 6.7%
  activity at 4 µM: 87.6 ± 8.7%
  activity at 16 µM: 141 ± 5.3%
[2]
  IC50: 109 µM

## CC1C/C=C/C(O)C/C=C/C(=O)Cc2cc(O)cc(O)c2C(=O)O1 (stereo not shown) [Compound 68]
[3]; [4]
  IC50: 10.7 µM
[2]
  IC50: 50.6 µM

## CC1CC2OC2CC(O)CCC(=O)Cc2c(Cl)c(O)cc(O)c2C(=O)O1 (stereo not shown) [Compound 73]
[3]; [4]
  IC50: 9.37 µM
[1]
  activity at 1 µM: 91.7 ± 5.7%
  activity at 4 µM: 81.2 ± 7.8%
  activity at 16 µM: 206 ± 9.2%
[2]
  IC50: > 120 µM

## C[C@@H]1C[C@@H]2O[C@H]2/C=C\C=C\C(=O)Cc2c(Cl)c(OC3OC(CO)C(O)C3O)cc(O)c2C(=O)O1 (stereo partly shown) [Compound 76]
[3]; [4]
  IC50: 8.56 µM
[1]
  activity at 1 µM: 80 ± 5.6%
  activity at 4 µM: 77.1 ± 7%
  activity at 16 µM: 121 ± 6.3%
[2]
  IC50: 55.9 µM

## CC1CC2OC2CC2=CC=C(Cc3c(Cl)c(O)cc(O)c3C(=O)O1)O2 (stereo not shown) [Compound 77]
[3]; [4]
  IC50: 8.13 µM
[3]
  WNT-5A mRNA amount / expression in dermal papilla cells: effectively inhibit
[1]
  activity at 1 µM: 81.6 ± 4.4%
  activity at 4 µM: 86.3 ± 5%
  activity at 16 µM: 181 ± 21.7%
  growth of dermal papilla cells: promote the growth
[2]
  IC50: > 120 µM

## COc1cc(O)c2c(c1)/C=C/CC(O)C(O)C(=O)/C=C\CC(C)OC2=O (stereo not shown) [Compound 79]
[3]; [4]
  IC50: 0.9 µM
[1]
  activity at 1 µM: 87.5 ± 9.9%
  activity at 4 µM: 98.6 ± 3.6%
  activity at 16 µM: 120 ± 4.1%
  growth of dermal papilla cells: excellent effect of promoting the growth
[2]
  IC50: 38.2 µM

Reference: patent publication US20050182129A1, “Hair growth tonic” (priority 2002, published 2005)
